US9695155B2, “Herbicidal substituted pyrimidinyloxy benzene compounds” (E. I. DU PONT DE NEMOURS AND COMPANY, priority 2013, dated 2017)

Key:
Assay in all cases: Test F preemergence
Settings in all cases: 21 days, scale 0 to 100
guineagrass = type: in vivo, Panicum maximum
Excerpt: (§1) Seeds of plant species selected from bermudagrass (Cynodon dactylon), surinam grass (Brachiaria decumbens), large (Lg) crabgrass (Digitaria sanguinalis), crabgrass, naked (naked crabgrass, Digitaria nuda), foxtail, green (green foxtail, Setaria viridis), johnsongrass (Sorghum halepense), kochia (Kochia scoparia), morningglory (pitted morningglory, Ipomoea lacunosa), nutsedge, purple (purple nutsedge, Cyperus rotundus), ragweed (common ragweed, Ambrosia elatior), mustard, black (black mustard, Brassica nigra), guineagrass (Panicum maximum), dallisgrass (Paspalum dilatatum), barnyardgrass (Echinochloa crus-galli), sandbur (southern sandbur, Cenchrus echinatus), sowthistle (common sowthistle, Sonchus oleraceous), Italian ryegrass (Lolium multiflorum), signalgrass (broadleaf signalgrass, Brachiaria platyphylla), dayflower (Virginia (VA) dayflower, Commelina virginica), bluegrass (annual bluegrass, Poa annua), quackgrass (Elytrigia repens), mallow (common mallow, Malva sylvestris), buckwheat, wild (wild buckwheat, Polygonum convolvulus), leafy spurge (Euphorbia esula), chickweed (common chickweed, Stellaria media), wild poinsettia (Euphorbia heterophylla), and pigweed (Amaranthus retroflexus) were planted into a blend of loam soil and sand and treated preemergence with test chemicals formulated in a non-phytotoxic solvent mixture which included a surfactant.
(§2) Treated plants and controls were maintained in a greenhouse for 21 days, after which time all species were compared to controls and visually evaluated. Plant response ratings, summarized in Table F, are based on a scale of 0 to 100 where 0 is no effect and 100 is complete control. A dash (-) response means no test result.

sowthistle = type: in vivo, Sonchus oleraceous
Excerpt: as §1, §2

mallow = type: in vivo, Malva sylvestris
Excerpt: as §1, §2

foxtail, green = type: in vivo, Setaria viridis
Excerpt: as §1, §2

chickweed = type: in vivo, Stellaria media
Excerpt: as §1, §2

surinam grass = type: in vivo, Brachiaria decumbens
Excerpt: as §1, §2

bluegrass = type: in vivo, Poa annua
Excerpt: as §1, §2

N#Cc1cccc(Oc2ncc(Cl)cn2)c1-n1cc(C(F)(F)F)cn1 [Compound 58, 3-[(5-chloro-2-pyrimidinyl)oxy]-2-[4-(trifluoromethyl)-1H-pyrazol-1-yl]benzonitrile]
Plant response rating, Guineagrass (guineagrass; 16 g ai/ha): 100 | Plant response rating, Guineagrass (guineagrass; 31 g ai/ha): 100 | Plant response rating, Guineagrass (guineagrass; 62 g ai/ha): 100 | Plant response rating, Guineagrass (guineagrass; 125 g ai/ha): 100 | Plant response rating, Guineagrass (guineagrass; 250 g ai/ha): 100 | Plant response rating, Sowthistle (sowthistle; 16 g ai/ha): 100 | Plant response rating, Sowthistle (sowthistle; 31 g ai/ha): 100 | Plant response rating, Sowthistle (sowthistle; 62 g ai/ha): 100 | Plant response rating, Sowthistle (sowthistle; 125 g ai/ha): 100 | Plant response rating, Sowthistle (sowthistle; 250 g ai/ha): 100 | Plant response rating, Mallow (mallow; 16 g ai/ha): 60 | Plant response rating, Mallow (mallow; 31 g ai/ha): 100 | Plant response rating, Mallow (mallow; 62 g ai/ha): 98 | Plant response rating, Mallow (mallow; 125 g ai/ha): 100 | Plant response rating, Mallow (mallow; 250 g ai/ha): 100 | Plant response rating, Foxtail, Green (foxtail, green; 16 g ai/ha): 75 | Plant response rating, Foxtail, Green (foxtail, green; 31 g ai/ha): 100 | Plant response rating, Foxtail, Green (foxtail, green; 62 g ai/ha): 100 | Plant response rating, Foxtail, Green (foxtail, green; 125 g ai/ha): 100 | Plant response rating, Foxtail, Green (foxtail, green; 250 g ai/ha): 100 | Plant response rating, Chickweed (chickweed; 16 g ai/ha): 100 | Plant response rating, Chickweed (chickweed; 31 g ai/ha): 100 | Plant response rating, Chickweed (chickweed; 62 g ai/ha): 100 | Plant response rating, Chickweed (chickweed; 125 g ai/ha): 100 | Plant response rating, Chickweed (chickweed; 250 g ai/ha): 100 | Plant response rating, Surinam Grass (surinam grass; 16 g ai/ha): 25 | Plant response rating, Surinam Grass (surinam grass; 31 g ai/ha): 60 | Plant response rating, Surinam Grass (surinam grass; 62 g ai/ha): 98 | Plant response rating, Surinam Grass (surinam grass; 125 g ai/ha): 100 | Plant response rating, Surinam Grass (surinam grass; 250 g ai/ha): 100 | Plant response rating, Bluegrass (bluegrass; 16 g ai/ha): 50 | Plant response rating, Bluegrass (bluegrass; 31 g ai/ha): 80 | Plant response rating, Bluegrass (bluegrass; 62 g ai/ha): 98 | Plant response rating, Bluegrass (bluegrass; 125 g ai/ha): 98 | Plant response rating, Bluegrass (bluegrass; 250 g ai/ha): 100
